Earlier results as cited in patent publication US20100055163A1, “FORMULATION OF NATURAL T[…] […] FROM THE GENUS OLEA IN LIPOSOMES” (UNIVERSIDAD DE GRANADA, priority 2006, published 2010).

Legend:
[1] = system: parasites of the genus Cryptosporidium; design: dose or concentration left out as unconfirmed; settings: MDCK cell lines
[2] = molecular target: HIV-1 protease (Human immunodeficiency virus type 1 group M subtype B, UniProt P04585)
[3] = system: acquired immunodeficiency virus; settings: acts intracellularly
[4] = system: membrane hepatocyte lipid peroxidation (LPO); settings: rats
[5] = system: rainbow trout; settings: added to feed

Structure (SMILES): CC1(C)CC[C@]2(C(=O)O)CC[C@]3(C)C(=CC[C@@H]4[C@@]5(C)C[C@@H](O)[C@H](O)C(C)(C)[C@@H]5CC[C@]43C)[C@@H]2C1 [maslinic acid, 2-alpha, 3-beta-dihydroxy-28-carboxy-oleanene]
- infection inhibition percentage [1]: 92.3%
- inhibiting activity in vitro of HIV-1 protease [2]: powerful inhibiting activity
- exit of the virus from the infected cell towards the medium [3]: considerably inhibits
- lipoperoxide levels and membrane hepatocyte susceptibility to lipid peroxidation (LPO) [4]: reduces lipoperoxide levels and membrane hepatocyte susceptibility to lipid peroxidation (LPO)
- hepatic organ and function [5]: significant improvement of the hepatic organ and function
